The numbers were not newly measured in US20100317636A1, “REDUCING THE RISK OF CHRONIC LUNG DISEASE IN INFANTS” (China Medical University, a Taiwan corporation, priority 2006, published 2010), which cites them from elsewhere.

SMILES strings stand for the structures.

The conditions of data set [1]: Ryrfeldt et al. (1982).

For the compound `CCCC1O[C@@H]2C[C@H]3[C@@H]4CCC5=CC(=O)C=C[C@]5(C)[C@H]4[C@@H](O)C[C@]3(C)[C@]2(C(=O)CO)O1` (stereo partly drawn) [Budesonide, 16 alpha, 17 alpha-(22R,S)-propylmethylenedioxypregna-1,4-diene-11 beta, 21-diol-3,20-dione], for the setting “chloroform”, the solubility in chloroform result is recorded as “freely soluble”. Moreover, the solubility in ethanol entry (ethanol) was “sparingly soluble”. Also, the solubility in heptane entry (heptane) is on record as “practically insoluble”. For the same compound, the solubility in water result (water) is given as “practically insoluble”. Besides, the “degradation in the liver” value in data set [1] was “rapidly degraded”.
